This passage reports change in vivo results from patent US4822800A (Ortho Pharmaceutical Corporation, priority 1986, dated 1989).

Assay [1] has as its system adult mongrel dogs. The assay is described as follows: acute in vivo cardiotonic activity in anesthetized dogs. Details: species or system dog (adult mongrel). As to conditions: Canis lupus familiaris, cardiotonic, relative to controls; for change in vivo at 1.875 mg/kg: dose 1.875 mg/kg intravenous; for change in vivo at 0.375 mg/kg: dose 0.375 mg/kg intravenous; for change in vivo at 0.125 mg/kg: dose 0.125 mg/kg intravenous; for change in vivo at 0.875 mg/kg: dose 0.875 mg/kg intravenous. As to the method:
The acute in vivo cardiotonic activity of compounds prepared according to the present invention was determined according to a modification of the procedure described by Alousi et al., Circ. Res., 45, 666 (1979).
In particular, adult mongrel dogs were anesthetized with sodium pentobarbital and were artificially respired. Arterial pressure was monitored via a femoral artery, and the pulse pressure was used to trigger a cardiotachometer for heart rate. Left ventricular pressure was determined with a Millar catheter, and dP/dt (the change in ventricular pressure with time) was derived. Cardiac output was determined by measuring ascending aortic blood flow with an electromagnetic flow probe, and myocardial contractile force was measured with a Walton Brodie strain gauge sutured to the right ventricle. Lead II EKG was also recorded.
A standard dose (10 μg/kg/min) of dopamine was administered to assess myocardial responsiveness.
Compounds of the invention were administered by intravenous infusion or bolus […] administration, and the effects on cardiovascular parameters were determined.
Dose related effects of the test compound on blood pressure (BP), heart rate (HR), maximum change in left ventricular pressure with time (dP/dt max),% change in cardiac force (CF) and the increase in mean arterial blood pressure relative to controls (MABP) were compared to pretreatment control values, expressed as a% change and rated for activity.

Assay [2] relates to adult mongrel dogs. The assay is described as follows: renal vasodilating activity in anesthetized dogs. It counts as in vivo, dog (adult mongrel). As to conditions: Canis lupus familiaris, renal vasodilator, relative to controls; for change in vivo at 1.2 mg/kg: dose 1.2 mg/kg intravenous; for change in vivo at 6.2 mg/kg: dose 6.2 mg/kg intravenous; for change in vivo at 0.2 mg/kg: dose 0.2 mg/kg intravenous; for change in vivo at 13.9 mg/kg / change in vivo at up to 13.9 mg/kg: dose 13.9 mg/kg intravenous. How it is done: Goldberg et al, J. Pharmacol. Exp. Ther., 163, 188 (1968), performed an investigation of the structural requirements for dopamine-like renal vasodilation of phenethylamines and apomorphine. The following procedure is a variation of the assay described in that report.
Adult mongrel dogs were anesthetized and surgically prepared for electromagnetic measurement of renal artery blood flow. A carotid artery was cannulated for measuring arterial blood pressure, and drugs were administered intravenously. Heart rate was monitored with a cardiotachometer. Renal vascular resistance was calculated as the ratio of mean arterial blood pressure/renal artery blood flow. Dopamine was infused intravenously at 3 μg/kg/min for ten minutes (at an infusion rate of about 1 ml/min) to determine responsiveness of each dog to renal dopamine receptor stimulation. Cumulative dose-response data were obtained by infusing a compound of this invention at progressively increasing (usually three-fold) infusion rates, each dose being infused for five minutes. The maximum % increase from pre-drug control in renal artery blood flow (or a decrease in renal vascular resistance) was determined for each infusion dose.
RBF values are percent change in renal blood flow. RVR values are percent change in renal vascular resistance. MABP and HR are percent changes in mean arterial blood pressure and heart rate, respectively, relative to controls.

Setting [3] is: read-out: MABP (mean arterial blood pressure).
Where [4] appears, read: read-out: dP/dt (maximum change left ventricular pressure with time).
[5] abbreviates: read-out: RBF (renal blood flow).
[6] abbreviates: read-out: RVR (renal vascular resistance).

Where two headings read alike, the source gives them in different places.

Regarding `Cc1nc(O)c(Cl)c2cc3c(cc12)OCO3` [AG], the change in vivo at 1.875 mg/kg in the assay on adult mongrel dogs [1] (read-out: CF (cardiac force)) is 88%; in the assay with adult mongrel dogs [1] (read-out: HR (heart rate)), 28%; in the assay on adult mongrel dogs [1] (setting [3]), -22%; with adult mongrel dogs [1] (setting [4]), 51%. The change in vivo at 1.2 mg/kg with adult mongrel dogs [2] (read-out: HR (heart rate)) was 27%; in the assay on adult mongrel dogs [2] (setting [3]), -27%; with adult mongrel dogs [2] (setting [5]), 10%; in the assay on adult mongrel dogs [2] (setting [6]), -34%.

Take `COc1cc2c(C)nc(O)c(CC(C)C)c2cc1OC` [AJ]: the change in vivo at 1.875 mg/kg with adult mongrel dogs [1] (read-out: CF (cardiac force)) is 39%; with adult mongrel dogs [1] (read-out: HR (heart rate)), 10%; in the assay on adult mongrel dogs [1] (setting [3]), -6%; in the assay on adult mongrel dogs [1] (setting [4]), 25%. Further, the change in vivo at 6.2 mg/kg with adult mongrel dogs [2] (read-out: HR (heart rate)) was 2%; in the assay with adult mongrel dogs [2] (setting [3]) it was 4%; in the assay on adult mongrel dogs [2] (setting [5]), 9%; in the assay on adult mongrel dogs [2] (setting [6]), -4%.

In the case of `CCOc1cc2c(C)nc(O)cc2cc1OC` [AK], the change in vivo at 0.375 mg/kg in the assay on adult mongrel dogs [1] (read-out: CF (cardiac force)) is 114%; with adult mongrel dogs [1] (read-out: HR (heart rate)), 13%; with adult mongrel dogs [1] (setting [3]), -5%; in the assay with adult mongrel dogs [1] (setting [4]), 39%. Moreover, the change in vivo at 0.2 mg/kg was 10% with adult mongrel dogs [2] (read-out: HR (heart rate)), -2% with adult mongrel dogs [2] (setting [3]), 10% in the assay with adult mongrel dogs [2] (setting [5]) and -11% in the assay with adult mongrel dogs [2] (setting [6]).

For the molecule `CCOc1cc2cnc(O)cc2cc1OC` [AQ], the change in vivo at 1.2 mg/kg in the assay on adult mongrel dogs [2] (read-out: HR (heart rate)) is 16%; with adult mongrel dogs [2] (setting [3]) it was 0%; in the assay on adult mongrel dogs [2] (setting [5]) it was 13%; with adult mongrel dogs [2] (setting [6]), -12%.

Turning to `CCOc1cc2c(C)nc(O)c(CC)c2cc1OC` [AS], the change in vivo at 0.125 mg/kg is 78% in the assay on adult mongrel dogs [1] (read-out: CF (cardiac force)), 8% in the assay on adult mongrel dogs [1] (read-out: HR (heart rate)), -10% in the assay with adult mongrel dogs [1] (setting [3]) and 49% in the assay on adult mongrel dogs [1] (setting [4]). The change in vivo at 6.2 mg/kg with adult mongrel dogs [2] (read-out: HR (heart rate)) is 2%; with adult mongrel dogs [2] (setting [3]) it was -1%; in the assay with adult mongrel dogs [2] (setting [5]), 9%; in the assay on adult mongrel dogs [2] (setting [6]), -11%.

On to `COc1cc(Br)c2cc(O)nc(C)c2c1OC` [AU], for which the change in vivo at 6.2 mg/kg in the assay with adult mongrel dogs [2] (read-out: HR (heart rate)) was -3%; in the assay on adult mongrel dogs [2] (setting [3]), 0%; with adult mongrel dogs [2] (setting [5]), 20%; in the assay with adult mongrel dogs [2] (setting [6]) it was -10%.

As for `CCOc1cc2cc(O)nc(C)c2cc1OC` [AW], the change in vivo at 6.2 mg/kg in the assay on adult mongrel dogs [2] (read-out: HR (heart rate)) is 59%; with adult mongrel dogs [2] (setting [3]), -17%; with adult mongrel dogs [2] (setting [5]), 20%; in the assay on adult mongrel dogs [2] (setting [6]), -34%.

With `Cc1nc(O)cc2cc(O)c(O)cc12` [Compound A], the values for the change in vivo at 13.9 mg/kg in the assay on adult mongrel dogs [2] (read-out: HR (heart rate)), in the assay with adult mongrel dogs [2] (setting [3]) and in the assay with adult mongrel dogs [2] (setting [5]) were 14%, -9% and 30%, respectively. In addition, the change in vivo at up to 13.9 mg/kg in the assay with adult mongrel dogs [2] (setting [6]) is -30%.

On to `COc1ccc2cc(O)nc(C)c2c1OC` [Compound C, 3-Hydroxy-7,8-dimethoxy-1-methylisoquinoline], for which the change in vivo at 0.875 mg/kg in the assay on adult mongrel dogs [1] (read-out: CF (cardiac force)) was 62%; with adult mongrel dogs [1] (read-out: HR (heart rate)), 10%; in the assay with adult mongrel dogs [1] (setting [3]) it was -6%; with adult mongrel dogs [1] (setting [4]) it was 51%.

`Cc1nc(O)cc2ccc(O)c(O)c12` [Compound I]: the change in vivo at 13.9 mg/kg is 38% in the assay on adult mongrel dogs [2] (read-out: HR (heart rate)), -4% in the assay on adult mongrel dogs [2] (setting [3]) and 35% in the assay with adult mongrel dogs [2] (setting [5]). Also, in the assay with adult mongrel dogs [2] (setting [6]), the change in vivo at up to 13.9 mg/kg is -29%.

For `COc1cc2c(C)nc(O)c(CCC(=O)OC(C)C)c2cc1OC` [Compound R, 4-β-Carboisopropoxyethyl-3-hydroxy-6,7-dimethoxy-1-methylisoquinoline], the change in vivo at 1.875 mg/kg in the assay on adult mongrel dogs [1] (read-out: CF (cardiac force)) is 22%; in the assay on adult mongrel dogs [1] (read-out: HR (heart rate)) it was 3%; with adult mongrel dogs [1] (setting [3]), -6%; with adult mongrel dogs [1] (setting [4]), 15%.

Take `COC(=O)CCc1c(O)nc(C)c2cc3c(cc12)OCO3` [L]: the change in vivo at 0.875 mg/kg was 131% in the assay with adult mongrel dogs [1] (read-out: CF (cardiac force)), 38% in the assay on adult mongrel dogs [1] (read-out: HR (heart rate)), -21% in the assay on adult mongrel dogs [1] (setting [3]) and 118% in the assay with adult mongrel dogs [1] (setting [4]).

For `CCCc1nc(O)c(CCC(=O)OC)c2cc(OC)c(OC)cc12` [M], the change in vivo at 1.875 mg/kg in the assay on adult mongrel dogs [1] (read-out: CF (cardiac force)) was 17%; in the assay with adult mongrel dogs [1] (read-out: HR (heart rate)), 2%; in the assay on adult mongrel dogs [1] (setting [3]), -4%; with adult mongrel dogs [1] (setting [4]), 19%.

For `COC(=O)CCc1c(O)nc(C(C)C)c2cc(OC)c(OC)cc12` [P], the change in vivo at 1.875 mg/kg was 15% with adult mongrel dogs [1] (read-out: CF (cardiac force)), 7% in the assay on adult mongrel dogs [1] (read-out: HR (heart rate)), 3% in the assay with adult mongrel dogs [1] (setting [3]) and 17% in the assay with adult mongrel dogs [1] (setting [4]).

With `CCOC(=O)CCc1c(O)nc(C)c2cc(OC)c(OC)cc12` [S], the change in vivo at 0.875 mg/kg is 60% in the assay with adult mongrel dogs [1] (read-out: CF (cardiac force)), 8% in the assay on adult mongrel dogs [1] (read-out: HR (heart rate)), -4% in the assay with adult mongrel dogs [1] (setting [3]) and 20% in the assay on adult mongrel dogs [1] (setting [4]).

Regarding `COc1cc2c(C)nc(O)c(CCC(=O)OC3CCCC3)c2cc1OC` [T], the change in vivo at 0.875 mg/kg is 23% in the assay on adult mongrel dogs [1] (read-out: CF (cardiac force)), 9% with adult mongrel dogs [1] (read-out: HR (heart rate)), -3% in the assay with adult mongrel dogs [1] (setting [3]) and 29% with adult mongrel dogs [1] (setting [4]).

Regarding `COC(=O)CCc1c(O)ncc2cc3c(cc12)OCO3` [U], the change in vivo at 1.875 mg/kg in the assay with adult mongrel dogs [1] (read-out: CF (cardiac force)) is 26%; in the assay with adult mongrel dogs [1] (read-out: HR (heart rate)), 6%; with adult mongrel dogs [1] (setting [3]), 0%; in the assay on adult mongrel dogs [1] (setting [4]) it was 28%.

As for `CNC(=O)CCc1c(O)nc(C)c2cc(OC)c(OC)cc12` [X], the change in vivo at 0.875 mg/kg is 40% with adult mongrel dogs [1] (read-out: CF (cardiac force)), 4% with adult mongrel dogs [1] (read-out: HR (heart rate)), -5% with adult mongrel dogs [1] (setting [3]) and 24% in the assay on adult mongrel dogs [1] (setting [4]).
